Data on 12 molecules can be found in publication PMC11280325, “Design, Synthesis, and Characterization of Novel Thiazolidine-2,4-Dione-Acridine Hybrids as Antitumor Agents” (Molecules, 2024).

The term IC50 denotes the concentration at which inhibition is half-maximal. High values mean lower potency, low ones higher potency.

In assay [1] the test system is Hep G2. The experiment in a line: MTT assay, Hep G2. It counts as cell-based, human. Particulars: hepatocellular carcinoma, 48 h incubation. Here is the method: (§1) The human cancer cell lines HeLa (cervical adenocarcinoma), HCT116 (colorectal adenocarcinoma), A2780 (human ovarian adenocarcinoma), A2780cis (human ovarian adenocarcinoma cisplatin-resistant), Jurkat (acute T-lymphoblastic leukemia), and Hep G2 (hepatocellular carcinoma) were cultured in an RPMI 1640 growth medium (Biosera, Kansas City, MO, USA). The cancer cell lines MDA-MB-231 (triple-negative breast adenocarcinoma), A2058 (human melanoma), U87 (human glioblastoma), PATU 8902 (pancreas adenocarcinoma), and A549 (human lung adenocarcinoma) were cultured in a DMEM medium (Biosera, Kansas City, MO, USA). The media were supplemented with 10% fetal bovine serum (FBS) (Invitrogen, Carlsbad, CA, USA) and 1× HyClone™ Antibiotic/Antimycotic Solution (GE Healthcare, Piscataway, NJ, USA).
(§2) To evaluate the IC50 (half-maximal inhibitory concentration) and confirm the antiproliferative activity of the tested substances, we employed the colorimetric MTT assay (3-(4,5-dimethylthiazol-2-yl)-2,5-diphenyltetrazolium bromide) (Sigma-Aldrich Chemie, Steinheim, Germany). The cell lines were seeded in 96-well plates at a density of 5 × 10^3 to 10 × 10^3 cells per well. After 24 h, the tested substances, dissolved in the cultivation medium, were added to the cells at final concentrations of 5, 10, 20, and 50 µmol/L. The cells were then incubated for 48 h under standard cultivation conditions. Following the incubation period, MTT was added to each well. The MTT was metabolized by the cells into insoluble formazan crystals, which were subsequently dissolved by adding 100 µL of 10% SDS. After another 24 h, the absorbance was measured at a wavelength of 540 nm using the automated Cytation™ 3 Cell Imaging Multi-Mode Reader (Biotek, Winooski, VT, USA). The experiments were performed in at least three independent repetitions. IC50 values were calculated using a nonlinear regression method.
A general note: Formazan colour is commonly taken as a measure of viable cells.

Assay [2] relates to HCT116. The experiment in a line: MTT assay, HCT116. It counts as cell-based, human. The note with it: colorectal adenocarcinoma, 48 h incubation. Here is the method: as §1, §2
Assay [3] deals with A2058. The assay can be described thus: MTT assay, A2058. It counts as cell-based. The note with it: human melanoma, 48 h incubation. The method, then: as §1, §2
For assay [4], the system named is PATU. The assay can be described thus: MTT assay, PATU 8902. Format: cell-based, human. Particulars: pancreas adenocarcinoma, 48 h incubation. Here is the method: as §1, §2
For assay [5], the system named is A549. The assay can be described thus: MTT assay, A549. Format: cell-based, human. Particulars: lung adenocarcinoma, 48 h incubation. The method, then: as §1, §2
Assay [6] has as its system Bj-5ta. The experiment in a line: MTT assay, BJ-5ta non-cancerous fibroblasts. The note with it: non-cancerous dermal fibroblasts, 48 h incubation. Format: cell-based, human. Here is the method: (§3) The non-cancerous cell line MCF-10A (human epithelial breast cells) was cultured in a DMEM F12 medium supplemented with 10% FBS (Invitrogen, Carlsbad, CA, USA), 1× HyClone™ Antibiotic/Antimycotic Solution (GE Healthcare, Piscataway, NJ, USA), insulin, hEGF, and hydrocortisone. The BJ-5ta cells (human dermal fibroblasts) were cultured in a DMEM-M199 4:1 medium mixture, supplemented with 10% FBS and hygromycin B (0.01 mg/mL). The cells were maintained under standard conditions with an atmosphere containing 5% CO2 at 37 °C. Cell viability, estimated by trypan blue exclusion, was consistently greater than 95% before each experiment.
as §2

Assay [7] has as its system MCF-10A. The experiment in a line: MTT assay, MCF-10A non-cancerous cells. Format: cell-based, human. Particulars: non-cancerous epithelial breast cells, 48 h incubation. The method, then: as §3, §2
The subject of assay [8] is A2780. The experiment in a line: MTT assay, A2780. It counts as cell-based, human. Particulars: ovarian adenocarcinoma, 48 h incubation. Here is the method: as §1, §2
Assay [9] deals with HeLa. The experiment in a line: MTT assay, HeLa. Format: cell-based, human. Particulars: cervical adenocarcinoma, 48 h incubation. Here is the method: as §1, §2

Structures can show the parent of a compound that is named as a salt. A value given as a limit tells only on which side of the number the result lay.

For the molecule `O=C(COc1ccc(/C=C2\SC(=O)N(Cc3c4ccccc4nc4ccccc34)C2=O)cc1)Nc1ccccc1` [7a·2HCl, 2-(4-{[(5Z)-3-[(Acridin-9-yl)methyl]-2,4-dioxo-1,3-thiazolidin-5-ylidene]methyl}phenoxy)-N-phenylacetamide dihydrochloride], the IC50 is > 50 µM in assay [1]; 13.1 ± 2.3 µM in assay [2]; > 50 µM in [3]; > 50 µM in assay [4]; 17 ± 1.35 µM in assay [5]; 29.9 ± 7.2 µM in assay [6]. Further, the IC50 in assay [7] was 17.6 ± 4.3 µM; in [8] it was > 50 µM; in [9] it was 17.7 ± 4.04 µM.

In the case of `COc1cc(NC(=O)COc2ccc(/C=C3\SC(=O)N(Cc4c5ccccc5nc5ccccc45)C3=O)cc2)cc(OC)c1` [7b·2HCl, 2-(4-{[(5Z)-3-[(Acridin-9-yl)methyl]-2,4-dioxo-1,3-thiazolidin-5-ylidene]methyl}phenoxy)-N-(3,5-dimethoxyphenyl)acetamide dihydrochloride], the IC50 in assay [1] was > 50 µM; in [2], 17.4 ± 1.74 µM; in assay [3], > 50 µM; in [4] it was > 50 µM; in assay [5], 21.9 ± 3.35 µM; in assay [6], 34.5 ± 5.5 µM. The IC50 in assay [7] is 11.3 ± 2.05 µM; in assay [8], > 50 µM; in assay [9] it was 6.11 ± 1.2 µM.

Turning to `O=C(COc1ccc(/C=C2\SC(=O)N(Cc3cccc4cc5ccccc5nc34)C2=O)cc1)Nc1ccccc1` [8a·HCl, 2-(4-{[(5Z)-3-[(Acridin-4-yl)methyl]-2,4-dioxo-1,3-thiazolidin-5-ylidene]methyl}phenoxy)-N-phenylacetamide hydrochloride], the IC50 in [1], in assay [2], in [3], in [4], in assay [5] and in assay [6] was > 50 µM in each case. This molecule also gave an IC50 in [9] of 42.6 ± 0.75 µM.

As for `O=C(COc1ccc(/C=C2\SC(=O)N(Cc3cccc4cc5ccccc5nc34)C2=O)cc1)Nc1ccc([N+](=O)[O-])cc1` [8d·HCl, 2-(4-{[(5Z)-3-[(Acridin-4-yl)methyl]-2,4-dioxo-1,3-thiazolidin-5-ylidene]methyl}phenoxy)-N-(4-nitrophenyl)acetamide hydrochloride], the IC50 in assay [1], in assay [2], in assay [3], in [4], in assay [5] and in assay [6] was > 50 µM each time. Moreover, the IC50 in [9] is > 50 µM.

`O=C(COc1ccc(/C=C2\SC(=O)N(Cc3cccc4cc5ccccc5nc34)C2=O)cc1)Nc1ccccc1C(F)(F)F` [8e·HCl, 2-(4-{[(5Z)-3-[(Acridin-4-yl)methyl]-2,4-dioxo-1,3-thiazolidin-5-ylidene]methyl}phenoxy)-N-[2-(trifluoromethyl)phenyl]acetamid hydrochloride]: the IC50 in [1], in [2], in assay [3], in assay [4], in [5] and in assay [6] was > 50 µM throughout. Further, the IC50 in [9] is > 50 µM.

Turning to `O=C(COc1ccc(/C=C2\SC(=O)N(Cc3cccc4cc5ccccc5nc34)C2=O)cc1)Nc1cccc(C(F)(F)F)c1` [8f·HCl, 2-(4-{[(5Z)-3-[(Acridin-4-yl)methyl]-2,4-dioxo-1,3-thiazolidin-5-ylidene]methyl}phenoxy)-N-[3-(trifluoromethyl)phenyl]acetamide hydrochloride], the IC50 in [1], in assay [2], in assay [3], in assay [4], in [5] and in [6] was > 50 µM in each case. For the same molecule, in assay [9], the IC50 was > 50 µM.

On to `COc1cc(/C=C2\SC(=O)N(Cc3cccc4cc5ccccc5nc34)C2=O)ccc1OCC(=O)Nc1ccccc1` [13a·HCl, 2-(4-{[(5Z)-3-[(Acridin-4-yl)methyl]-2,4-dioxo-1,3-thiazolidin-5-ylidene]methyl}-2-methoxyphenoxy)-N-phenylacetamide hydrochloride], for which the IC50 in assay [1], in assay [2], in assay [3], in assay [4], in [5] and in assay [6] was > 50 µM throughout. The IC50 in [9] was > 50 µM.

As for `COc1cc(NC(=O)COc2ccc(/C=C3\SC(=O)N(Cc4cccc5cc6ccccc6nc45)C3=O)cc2OC)cc(OC)c1` [13b·HCl, 2-(4-{[(5Z)-3-[(Acridin-4-yl)methyl]-2,4-dioxo-1,3-thiazolidin-5-ylidene]methyl}-2-methoxyphenoxy)-N-(3,5-dimethoxyphenyl)acetamide hydrochloride], the IC50 in [1], in [2], in [3], in assay [4], in [5] and in [6] was > 50 µM each time. Also, in [9], the IC50 turned out to be 45.5 ± 2.9 µM.

Take `COc1cc(/C=C2\SC(=O)N(Cc3cccc4cc5ccccc5nc34)C2=O)ccc1OCC(=O)Nc1ccc([N+](=O)[O-])cc1` [13d·HCl, 2-(4-{[(5Z)-3-[(Acridin-4-yl)methyl]-2,4-dioxo-1,3-thiazolidin-5-ylidene]methyl}-2-methoxyphenoxy)-N-(4-nitrophenyl)acetamide hydrochloride]: the IC50 in [1], in [2], in assay [3], in [4], in assay [5] and in [6] was > 50 µM each time. For the same molecule, the IC50 in assay [9] was > 50 µM.

In the case of `COc1cc(/C=C2\SC(=O)N(Cc3cccc4cc5ccccc5nc34)C2=O)ccc1OCC(=O)Nc1ccccc1C(F)(F)F` [13e·HCl, 2-(4-{[(5Z)-3-[(Acridin-4-yl)methyl]-2,4-dioxo-1,3-thiazolidin-5-ylidene]methyl}-2-methoxyphenoxy)-N-[2-(trifluoromethyl)phenyl]acetamide hydrochloride], the IC50 is > 50 µM in assay [1]; 14.5 ± 3.4 µM in [2]; > 50 µM in [3]; 39.8 ± 7.1 µM in [4]; 42.8 ± 5.4 µM in [5]; > 50 µM in assay [6]. This molecule returned an IC50 in assay [9] of 13.7 ± 4.5 µM.

Turning to `COc1cc(/C=C2\SC(=O)N(Cc3cccc4cc5ccccc5nc34)C2=O)ccc1OCC(=O)Nc1cccc(C(F)(F)F)c1` [13f·HCl, 2-(4-{[(5Z)-3-[(Acridin-4-yl)methyl]-2,4-dioxo-1,3-thiazolidin-5-ylidene]methyl}-2-methoxyphenoxy)-N-[3-(trifluoromethyl)phenyl]acetamide hydrochloride], the IC50 in assay [1] is > 50 µM; in assay [2], 14.3 ± 3.2 µM; in assay [3], > 50 µM; in [4], 43.7 ± 5.8 µM; in [5] it was 38.2 ± 7.35 µM; in assay [6] it was > 50 µM. Moreover, half-maximal inhibition in assay [9] (IC50) required 12.3 ± 4.9 µM.

Regarding `COc1cc(/C=C2\SC(=O)N(Cc3cccc4cc5ccccc5nc34)C2=O)ccc1OCC(=O)Nc1cc(C(F)(F)F)cc(C(F)(F)F)c1` [13g·HCl, 2-(4-{[(5Z)-3-[(Acridin-4-yl)methyl]-2,4-dioxo-1,3-thiazolidin-5-ylidene]methyl}-2-methoxyphenoxy)-N-[3,5-bis(trifluoromethyl)phenyl]acetamide hydrochloride], the IC50 in assay [1], in [2], in assay [3], in [4], in assay [5] and in assay [6] was > 50 µM throughout. The molecule further came in with an IC50 in assay [9] of 34.7 ± 6.4 µM.
